This passage reports IC50 results from patent US20250197424A1, “QUINOLINE COMPOUND AND USE THEREOF” (SHANGHAI PHARMACEUTICALS HOLDING CO., LTD., priority 2022, published 2025).

Molecules are shown by their SMILES. Counter-ions that a name gives are not always drawn.

The target in this test is GTP-KRAS-G12D:SOS1 (Homo sapiens (Human), UniProt P01116, G12D). Kind of test: GTP-KRAS-G12D:SOS1 binding inhibition. As for the experimental part: The IC50 of the compounds was fitted using a nonlinear regression equation with GraphPad Prism 8. The results are presented in Table 2: • Negative control: DMSO • Positive control: 100 μM BI-2852
The following nonlinear fitting formula was used to obtain the IC50 (half-maximal inhibitory concentration) of the compounds:
[formula] • X: logarithm of the compound concentration • Y: 665/615 Ratio

Sequence of GTP-KRAS-G12D:SOS1 (P01116-2 other isoform, or with tags, fused parts or gaps G12D): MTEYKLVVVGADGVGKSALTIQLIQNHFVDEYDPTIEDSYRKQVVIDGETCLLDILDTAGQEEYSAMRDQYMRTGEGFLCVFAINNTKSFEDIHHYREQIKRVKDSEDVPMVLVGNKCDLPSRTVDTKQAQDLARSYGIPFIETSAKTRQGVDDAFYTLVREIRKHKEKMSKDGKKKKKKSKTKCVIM

As to `Cc1cc(N)nc(-c2c(F)c3c4c(nc(OC[C@@]56CCCN5C[C@H](F)C6)nc4c2F)N2CC4CCC(N4)C2CO3)c1C(F)(F)F` (single isomer, unassigned) [10a′, (S or R)-6-((5aS,6S,9R)-1,3-Difluoro-13-(((2R,7aS)-2-fluorotetrahydro-1H-pyrrolizin-7a(5H)-yl)methoxy)-5a,6,7,8,9,10-hexahydro-5H-6,9-epiminoazepino[2′,1′:3,4][1,4]oxazepino[5,6,7-de]quinazolin-2-yl)-4-methyl-5-(trifluoromethyl)pyridin-2-amine], the IC50 (as a rule, the point on the concentration scale where inhibition reaches its midpoint) worked out at 700 nM.

As for `Cc1cc(N)nc(-c2c(F)c3c4c(nc(OC[C@@]56CCCN5C[C@H](F)C6)nc4c2F)N2CC4CCC(N4)C2CO3)c1C(F)(F)F` (single isomer, unassigned) [10b′, (R or S)-6-((5aS,6S,9R)-1,3-difluoro-13-(((2R,7aS)-2-fluorotetrahydro-1H-pyrrolizin-7a(5H)-yl)methoxy)-5a,6,7,8,9,10-hexahydro-5H-6,9-epiminoazepino[2′,1′:3,4][1,4]oxazepino[5,6,7-de]quinazolin-2-yl)-4-methyl-5-(trifluoromethyl)pyridin-2-amine], the IC50 came to 11.7 nM.

On to `CCc1cccc2cc(O)cc(-c3c(F)c4c5c(nc(OC[C@@]67CCCN6C[C@H](F)C7)nc5c3F)N3CC5CCC(N5)C3CO4)c12` (single isomer, unassigned) [Compound 5b, (R or S)-4-((5aS,6S,9R)-1,3-difluoro-13-(((2R,7aS)-2-fluorotetrahydro-1H-pyrrolizin-7a(5H)-yl)methoxy)-5a,6,7,8,9,10-hexahydro-5H-6,9-epiminoazepino[2′,1′:3,4][1,4]oxazepino[5,6,7-de]quinazolin-2-yl)-5-ethylnaphthalen-2-ol dihydrochloride], for which the IC50 was 2800 nM.

In the case of `O=C1CC2(CCc3c(nc(OC[C@@]45CCCN4C[C@H](F)C5)nc3N3C[C@H]4CC[C@@H](C3)N4)C2)c2cc(O)cc(Cl)c21` (single isomer, unassigned) [Compound 6a, (S or R)-4′-((1R,5S)-3,8-Diazabicyclo[3.2.1]octan-3-yl)-4-chloro-2′-(((2R,7aS)-2-fluorotetrahydro-1H-pyrrolizin-7a(5H)-yl)methoxy)-6-hydroxy-5′,8′-dihydro-6′H-spiro[indene-1,7′-quinazolin]-3 (2H)-one dihydrochloride], the half-inhibitory concentration (IC50) was 314 nM.

Regarding `Oc1cc(Cl)c2c(c1)C1(CC2)CCc2c(nc(OC[C@@]34CCCN3C[C@H](F)C4)nc2N2CC3CCC(C2)N3)C1F` (single isomer, unassigned) [Compound 8c, (1S or 1R,8′R or 8'S)-4′-((1R,5S)-3,8-diazabicyclo[3.2.1]octan-3-yl)-4-chloro-8′-fluoro-2′-(((2R,7aS)-2-fluorotetrahydro-1H-pyrrolizin-7a(5H)-yl)methoxy)-2,3,5′,8′-tetrahydro-6′H-spiro[indene-1,7′-quinazolin]-6-ol dihydrochloride], the IC50 was found to be 4010 nM.

Regarding `Oc1cc(-c2c(F)c3c4c(nc(OC[C@@]56CCCN5C[C@H](F)C6)nc4c2F)N2CC4CCC(N4)C2CO3)c2c(C3CC3)cccc2c1` (single isomer, unassigned) [Compound 11b, 5-cyclopropyl-4-((2S or 2R,5aS,6S,9R)-1,3-difluoro-13-(((2R,7aS)-2-fluorotetrahydro-1H-pyrrolizin-7a(5H)-yl)methoxy)-5a,6,7,8,9,10-hexahydro-5H-6,9-epiminoazepino[2′,1′:3,4][1,4]oxazepino[5,6,7-de]quinazolin-2-yl) naphthalen-2-ol dihydrochloride], the IC50 worked out at 18.5 nM.

In the case of `COCCc1cccc2cc(O)cc(-c3c(F)c4c5c(nc(OC[C@@]67CCCN6C[C@H](F)C7)nc5c3F)N3CC5CCC(N5)C3CO4)c12` (single isomer, unassigned) [Compound 12b, 4-((2S or 2R,5aS,6S,9R)-1,3-difluoro-13-(((2R,7aS)-2-fluorotetrahydro-1H-pyrrolizin-7a(5H)-yl)methoxy)-5a,6,7,8,9,10-hexahydro-5H-6,9-epiminoazepino[2′,1′:3,4][1,4]oxazepino[5,6,7-de]quinazolin-2-yl)-5-(2-methoxyethyl) naphthalen-2-ol dihydrochloride], the IC50 stood at 21.3 nM.

As to `CCc1cccc2cc(O)cc(-c3c(F)c4c5c(nc(OC[C@@]67CCCN6C[C@H](F)C7)nc5c3F)N3CC5CCC(N5)C3CCO4)c12` (single isomer, unassigned) [Compound 13b, 4-((2R or 2S, 6aS,7S,10R)-1,3-difluoro-14-(((2R,7aS)-2-fluorotetrahydro-1H-pyrrolizin-7a(5H)-yl)methoxy)-5,6,6a,7,8,9,10,11-octahydro-7,10-epiminoazepino[1′,2′: 5,6][1,5]oxazocino[4,3,2-de]quinazolin-2-yl)-5-ethylnaphthalen-2-ol dihydrochloride], the IC50 was 8930 nM.

`Oc1cc(-c2c(F)c3c4c(nc(OC[C@@]56CCCN5C[C@H](F)C6)nc4c2F)N2CC4CCC(N4)C2CO3)c2c3c(ccc2c1)CCC3` (single isomer, unassigned) [Compound 14b, 9-((2S or 2R,5aS,6S,9R)-1,3-difluoro-13-(((2R,7aS)-2-fluorotetrahydro-1H-pyrrolizin-7a(5H)-yl)methoxy)-5a,6,7,8,9,10-hexahydro-5H-6,9-epiminoazepino[2′,1′:3,4][1,4]oxazepino[5,6,7-de]quinazolin-2-yl)-2,3-dihydro-1H-cyclopenta[a]naphthalen-7-ol dihydrochloride]: the IC50 amounted to 15.3 nM.

Turning to `CCc1cccc2cc(O)cc(-c3c(F)c4c5c(nc(OC[C@@]67C[C@H](O)CN6C[C@H](F)C7)nc5c3F)N3CC5CCC(N5)C3CO4)c12` (single isomer, unassigned) [Compound 15a, (2S,6R,7aS)-7a-((((2R or 2S, 5aS,6S,9R)-2-(8-Ethyl-3-hydroxynaphthalen-1-yl)-1,3-difluoro-5a,6,7,8,9,10-hexahydro-5H-6,9-epiminoazepino[2′,1′:3,4][1,4]oxazepino[5,6,7-de]quinazolin-13-yl)oxy)methyl)-6-fluorohexahydro-1H-pyrrolizin-2-ol dihydrochloride], the IC50 was 2670 nM.

As for `CCc1cccc2cc(O)cc(-c3c(F)c4c5c(nc(OC[C@@]67C[C@H](O)CN6C[C@H](F)C7)nc5c3F)N3CC5CCC(N5)C3CO4)c12` (single isomer, unassigned) [Compound 15b, (2S,6R,7aS)-7a-((((2S or 2R,5aS,6S,9R)-2-(8-ethyl-3-hydroxynaphthalen-1-yl)-1,3-difluoro-5a,6,7,8,9,10-hexahydro-5H-6,9-epiminoazepino[2′,1′:3,4][1,4]oxazepino[5,6,7-de]quinazolin-13-yl)oxy)methyl)-6-fluorohexahydro-1H-pyrrolizin-2-ol dihydrochloride], the IC50 is 6.54 nM.

Compound `CCc1cccc2cc(O)cc(-c3c(F)c4c5c(nc(OC[C@]67C[C@@H](F)CN6C[C@@H](OC)C7)nc5c3F)N3CC5CCC(N5)C3CO4)c12` (single isomer, unassigned) [Compound 16b, 4-((2S or 2R,5aS,6S,9R)-1,3-difluoro-13-(((2R,6S,7aS)-2-fluoro-6-methoxytetrahydro-1H-pyrrolizin-7a(5H)-yl)methoxy)-5a,6,7,8,9,10-hexahydro-5H-6,9-epiminoazepino[2′, l′: 3,4][1,4]oxazepino[5,6,7-de]quinazolin-2-yl)-5-ethylnaphthalen-2-ol dihydrochloride] showed an IC50 of 7.55 nM.

`CCc1cccc2cc(O)cc(-c3c(F)c4c5c(nc(OC[C@]67C[C@@H](F)CN6C[C@@H](COC)C7)nc5c3F)N3CC5CCC(N5)C3CO4)c12` (single isomer, unassigned) [Compound 18a, 4-((2R or 2S, 5aS,6S,9R)-1,3-Difluoro-13-(((2R,6S,7aS)-2-fluoro-6-(methoxymethyl)tetrahydro-1H-pyrrolizin-7a(5H)-yl)methoxy)-5a,6,7,8,9,10-hexahydro-5H-6,9-epiminoazepino[2′,1′:3,4][1,4]oxazepino[5,6,7-de]quinazolin-2-yl)-5-ethylnaphthalen-2-ol dihydrochloride] registered an IC50 of 1940 nM.

Take `CCc1cccc2cc(O)cc(-c3c(F)c4c5c(nc(OC[C@@]67CCC8(CC8)N6C[C@H](F)C7)nc5c3F)N3CC5CCC(N5)C3CO4)c12` (single isomer, unassigned) [Compound 20b, 4-((2S or 2R,5aS,6S,9R)-1,3-difluoro-13-(((6′R,7a'S)-6′-fluorotetrahydrospiro[cyclopropane-1,3′-pyrrolizin]-7a′ (5′H)methoxy)-5a,6,7,8,9,10-hexahydro-5H-[6,9]epiminoazepino[2′,1′:3,4][1,4]oxazepino[5,6,7-de]quinazolin-2-yl)-5-ethylnaphthalen-2-oldihydrochloride]: the half-inhibitory concentration (IC50) is 8.81 nM.

For `CCc1cccc2cc(O)cc(-c3c(F)c4c5c(nc(OC[C@]67C[C@@H](F)CN6C[C@H](CO)C7)nc5c3F)N3CC5CCC(N5)C3CO4)c12` (single isomer, unassigned) [Compound 21a, 4-((2R or 2S, 5aS,6S,9R)-1,3-Difluoro-13-(((2R,6R,7aS)-2-fluoro-6-(hydroxymethyl)tetrahydro-1H-pyrrolizin-7a(5H)-yl)methoxy)-5a,6,7,8,9,10-hexahydro-5H-6,9-epiminoazepino[2′,1′:3,4][1,4]oxazepino[5,6,7-de]quinazolin-2-yl)-5-ethylnaphthalen-2-ol dihydrochloride], the IC50 is 7220 nM.

For `CCc1cccc2cc(O)cc(-c3c(F)c4c5c(nc(OC[C@]67C[C@@H](F)CN6C[C@H](CO)C7)nc5c3F)N3CC5CCC(N5)C3CO4)c12` (single isomer, unassigned) [Compound 21b, 4-((2S or 2R,5aS,6S,9R)-1,3-difluoro-13-(((2R,6R,7aS)-2-fluoro-6-(hydroxymethyl)tetrahydro-1H-pyrrolizin-7a(5H)-yl)methoxy)-5a,6,7,8,9,10-hexahydro-5H-6,9-epiminoazepino[2′,1′:3,4][1,4]oxazepino[5,6,7-de]quinazolin-2-yl)-5-ethylnaphthalen-2-ol dihydrochloride], the IC50 is 7.21 nM.
